The results in this text go back to publication PMC9868454, “Exploring novel targets of sitagliptin for type 2 diabetes mellitus: Network pharmacology, molecular docking, molecular dynamics simulation, and SPR approaches” (Frontiers in Endocrinology, 2023).

In the experiment the target is angiotensin-converting enzyme 2 (ACE2) (Homo sapiens, UniProt Q9BYF1). Nature of the experiment: SPR (Biacore T200, ACE2 coupled to CM5 chip, steady-state affinity fit). The class given is binding. In general terms: SPR reads the build-up and loss of mass on a sensor chip optically.
Chain of angiotensin-converting enzyme 2 (ACE2) (Q9BYF1 18-805): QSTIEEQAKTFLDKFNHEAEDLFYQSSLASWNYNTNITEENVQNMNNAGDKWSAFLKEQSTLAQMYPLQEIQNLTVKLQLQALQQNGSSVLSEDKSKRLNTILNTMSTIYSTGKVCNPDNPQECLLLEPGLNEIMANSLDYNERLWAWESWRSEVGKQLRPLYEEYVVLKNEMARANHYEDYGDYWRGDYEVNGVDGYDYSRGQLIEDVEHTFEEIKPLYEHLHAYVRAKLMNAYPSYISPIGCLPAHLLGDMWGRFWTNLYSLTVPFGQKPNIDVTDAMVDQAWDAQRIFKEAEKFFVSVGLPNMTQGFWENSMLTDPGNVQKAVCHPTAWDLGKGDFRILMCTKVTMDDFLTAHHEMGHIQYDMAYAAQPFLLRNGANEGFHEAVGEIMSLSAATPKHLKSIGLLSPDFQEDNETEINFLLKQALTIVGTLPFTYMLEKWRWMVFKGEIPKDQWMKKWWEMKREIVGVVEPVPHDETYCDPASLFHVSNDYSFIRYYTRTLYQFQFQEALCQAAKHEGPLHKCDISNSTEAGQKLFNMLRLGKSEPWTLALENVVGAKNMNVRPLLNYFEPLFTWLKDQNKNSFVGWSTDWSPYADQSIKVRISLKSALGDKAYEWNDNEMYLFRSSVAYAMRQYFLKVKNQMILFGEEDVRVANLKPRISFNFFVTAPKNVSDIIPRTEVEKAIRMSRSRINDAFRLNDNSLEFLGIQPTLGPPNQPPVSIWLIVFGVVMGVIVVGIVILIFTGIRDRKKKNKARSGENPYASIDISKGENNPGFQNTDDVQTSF

One may read the Kd as the concentration at which binding is half-saturated. The low end stands for higher affinity, the high end for lower affinity. For `N[C@@H](CC(=O)N1CCn2c(nnc2C(F)(F)F)C1)Cc1cc(F)c(F)cc1F` [sitagliptin], the Kd is 0.0351 µM.
